Experimental data reported in patent US9113629B2, “4-amino-6-(4-substituted-phenyl)-picolinates and 6-amino-2-(4-substituted-phenyl)-pyrimidine-4-carboxylates and their use as herbicides” (DOW AGROSCIENCES LLC, priority 2013, dated 2015).
Like-named read-outs stand apart in the source and are kept apart here.

Key:
[1] = tested on: Key Broadleaf Weed and Crop Species; experiment: Post-emergent Test II herbicidal activity (Table 5); format: in vivo; conditions: post-emergence, 336 h, 14 days after application; for pest or weed control at 70 g/ha: application rate 70 g ai/ha; for pest or weed control at 140 g/ha: application rate 140 g ai/ha
Method in brief: (§1)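 Spray rates: a highest rate plus ½×, ¼×, ⅛×, 1/16×, all delivered at 187 L/ha to plants at the first–second true leaf stage. Readout is a visual percent injury score at 14 d, where 100 means complete kill.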

[2] = tested on: Key Grass and Sedge Weeds as well as Grass Crops; experiment: Post-emergent Test II herbicidal activity (Table 6); format: in vivo; conditions: post-emergence, 336 h; for pest or weed control at 70 g/ha: 70 g ai/ha; for pest or weed control at 140 g/ha: 140 g ai/ha
Method in brief: as §1

[3] = ABUTH: velvetleaf (Abutilon theophrasti), read-out: Visual Growth Reduction (%) 14 Days After Application, ABUTH
[4] = AMARE: redroot pigweed (Amaranthus retroflexus), read-out: Visual Growth Reduction (%) 14 Days After Application, AMARE
[5] = BRSNN: oilseed-rape, canola (Brassica napus), read-out: Visual Growth Reduction (%) 14 Days After Application, BRSNN
[6] = CHEAL: lambsquarters (Chenopodium album), read-out: Visual Growth Reduction (%) 14 Days After Application, CHEAL
[7] = EPHHL: wild poinsettia (Euphorbia heterophylla), read-out: Visual Growth Reduction (%) 14 Days After Application, EPHHL
[8] = HELAN: sunflower (Helianthus annuus), read-out: Visual Growth Reduction (%) 14 Days After Application, HELAN
[9] = VIOTR: wild pansy (Viola tricolor), read-out: Visual Growth Reduction (%) 14 Days After Application, VIOTR
[10] = CYPES: yellow nutsedge (Cyperus esculentus), read-out: Visual Growth Reduction (%) 14 Days After Application, CYPES
[11] = DIGSA: crabgrass (Digitaria sanguinalis), read-out: Visual Growth Reduction (%) 14 Days After Application, DIGSA
[12] = ECHCG: barnyardgrass (Echinochloa crus-galli), read-out: Visual Growth Reduction (%) 14 Days After Application, ECHCG
[13] = ORYSA: rice (Oryza sativa), crop, read-out: Visual Growth Reduction (%) 14 Days After Application, ORYSA
[14] = SETFA: giant foxtail (Setaria faberi), read-out: Visual Growth Reduction (%) 14 Days After Application, SETFA
[15] = SORVU: grain sorghum (Sorghum vulgare), read-out: Visual Growth Reduction (%) 14 Days After Application, SORVU
[16] = TRZSS (wheat, Triticum aestivum), crop, read-out: Visual Growth Reduction (%) 14 Days After Application, TRZSS
[17] = ZEAMX: maize, corn (Zea mays), crop, read-out: Visual Growth Reduction (%) 14 Days After Application, ZEAMX

COC(=O)c1nc(-c2ccccc2)c(F)c(N)c1Cl [Compound 181]
85 to 94%: pest or weed control at 70 g/ha [1, 4] | pest or weed control at 70 g/ha [1, 5] | pest or weed control at 70 g/ha [1, 7]
95 to 100%: pest or weed control at 70 g/ha [1, 3] | pest or weed control at 140 g/ha [1, 3] | pest or weed control at 140 g/ha [1, 4] | pest or weed control at 140 g/ha [1, 5] | pest or weed control at 70 g/ha [1, 6] | pest or weed control at 140 g/ha [1, 6] | pest or weed control at 140 g/ha [1, 7] | pest or weed control at 70 g/ha [1, 8] | pest or weed control at 140 g/ha [1, 8] | pest or weed control at 70 g/ha [2, 10] | pest or weed control at 140 g/ha [2, 10]
30 to 44%: pest or weed control at 140 g/ha [2, 15] | pest or weed control at 140 g/ha [2, 17]
0 to 29%: pest or weed control at 70 g/ha [1, 9] | pest or weed control at 140 g/ha [1, 9] | pest or weed control at 70 g/ha [2, 11] | pest or weed control at 140 g/ha [2, 11] | pest or weed control at 70 g/ha [2, 12] | pest or weed control at 140 g/ha [2, 12] | pest or weed control at 70 g/ha [2, 13] | pest or weed control at 140 g/ha [2, 13] | pest or weed control at 70 g/ha [2, 14] | pest or weed control at 140 g/ha [2, 14] | pest or weed control at 70 g/ha [2, 15] | pest or weed control at 70 g/ha [2, 16] | pest or weed control at 140 g/ha [2, 16] | pest or weed control at 70 g/ha [2, 17]
